{
  "source": "patent US20020055174A1",
  "about": "“Complex for transferring an anionic substance of interest into a cell” (priority 2000, published 2002)",
  "key": {"[1]": {"tested_on": "WiDr, MDA-MB-435S, SW480 and LoVo", "assay": "Transfection of human tumor cell lines", "assay_type": "cell-based", "conditions": "ppTG1/plasmid pTG11236 complexes, luciferase day 1", "procedure": "WiDr (ATCC CCL-218), MDA-MB-435S (ATCC HTB-129), SW480 (ATCC CCL-228) and LoVo cell (CCL-229) were cultivated in the appropriate medium with 10% fetal calf serum, 1% gentamycine, 1% glutamine and 3 g/l glucose, in an incubator at 37° C. and 5% CO2.\nThe transfection efficiencies with plasmid/ppTG1 complexes were tested in the human tumor cells WiDr, MDA-MB-435S, SW480 and LoVo (ATCC) in comparison to lipofectin, PEI and pcTG90/DOPE (1:1) [+/−] 5."}, "plasmid pTG11236": {"tested_on": "plasmid pTG11236", "assay": "Gel retardation assay (DNA binding)", "procedure": "3μg of the plasmid pTG11236 were incubated with increasing amounts of the respective peptide in a final volume of 30 μl with 0.9% NaCl. After 20 min of incubation at room temperature, 6 μl 5× loading buffer (glycerol and bromphenol blue in TAE buffer) were added and 10 μl of these solutions were analyzed on a 1% agarose gel in the presence of ethidium bromide.\nThe ability of ppTG1 peptide to complex DNA was analyzed by gel retardation assays. […] After 20 minutes incubation at room temperature, loading buffer was added and 10 μl of the resulting solution were analyzed on a 1% agarose gel.\nppTG1 derivatives as they are indicated in Materials and Methods, were tested for their capacity to bind plasmid DNA by gel retardation assays."}, "[2]": {"assay": "Liposome leakage assay, POPC/cholesterol 3:2 liposomes", "conditions": "for liposome leakage activity, in words: POPC/chol 3:2 liposomes", "quoted_text": "Increasing amounts of the indicated peptides were incubated with POPC/Cholesterol (3:2 mol/mol) liposomes for 30 min at RT. Emitted fluorescence was plotted against peptide concentration. […] B) Liposome leakage activity with complexes of ppTG1 and the plasmid pTG11236 at pH7.\n1-Palmitoyl-2-Oleoyl-phosphatidylcholine (POPC) liposomes were prepared by the repeated freeze-thaw method followed by extrusion (Olson et al., 1979, Biochim. Biophys. Acta 557, 19-23). Ten μ-moles of POPC in chloroform were placed in a glass tube and solvent was evaporated under reduced pressure using a Labconco Rapidvap vortex evaporator (Uniequip, Germany). The resulting lipid film was hydrated with 0.5 ml of an aqueous solution of calcein (lOOmM calcein, 3.75 eq. NaOH, 50mM NaCl). The lipid suspension was sonicated until the solution became clear using a sonic water bath (Bransonic 221, Branson Ultrasonics Corp., USA). Five cycles of freeze-thaw were performed before liposomes were extruded by 4 passages through 200 nm pore diameter polycarbonate membranes (Nuclepore, Costar, Mass., USA). Free calcein was removed from calcein encapsulated into liposomes by gel exclusion chromatography using a Sephadex G-50 column (3 cm×14 cm) and a 200 mM NaCl, 25 mM HEPES, pH 7.3 solution as the elution buffer. The final lipid concentration was determined by a phosphorus assay (Bartlett, 1959, J. Biol. Chem. 234, 466-469). Liposomes' diameter was determined by dynamic laser light scattering using a Coulter N4 Plus submicron particle sizer (Coultronics France S. A, France). Measurements were performed within a 3 nm-10000 nm size window with a fixed 90° scattered light angle.\nThe liposome leakage assay was carried out as described in Planck et al. (1994, J. Biol. Chem. 269, 12918-12924). The liposome stock solution was diluted to a lipid concentration of 45 μM in 1.8× assay buffer (360 mM NaCl, 36 mM sodium citrate, pH 5 and pH 7). A 1:5 serial dilution of the tested peptide was carried out in a 96-well microtiter plate by transferring 20 μl of the peptide solution from one well to the next well and diluting with 80 μl H2O. 100 μl of the liposome solution was added in each well (final lipid concentration: 25 μM) and, after 30 min at room temperature, was assayed for fluorescence at 535 nm (excitation: 485 nm) on a microtiter plate fluorescence spectrometer (WALLAC, 1420 multilabel counter Victor). These conditions are appropriate to analyze fluorescein and as close as possible to the appropriate excitation/ emission profile of calcein (495 nm /515 nm). The value for 100% leakage was obtained by addition of 1 μl of a 10% Triton X-100 solution. Leakage activity was plotted against peptide concentration.\nLiposome leakage activities were analyzed on liposomes consisting of POPC and cholesterol at a molar ratio of 3:2 (mol/mol).\nComplexes of ppTG1 with plasmid DNA pTG11236 were tested for liposome leakage activity on POPC/chol 3:2 liposomes.\nThe series of ppTG1 derivatives as they are listed in Materials and Methods was tested for liposome leakage activity on POPC/chol 3:2 liposomes at pH7."}, "B6SJL mice": {"tested_on": "B6SJL mice", "procedure": "Indicated amounts of the luciferase expression plasmid pTG11236 were mixed with ppTG1 and /or pcTG90/DOPE. The resulting formulations were injected intramuscularly(30 μl), intravenously(250 μl) into mice or intratumorally (Renca tumors, 100 μgl). Muscles, tumors or organs were recovered at the indicated points of time, macerated and tested for luciferase activity with the luciferase assay kit from Promega.\n60 μg or 30 μg of the plasmid pTG11236 were mixed with peptide ppTG1 and/or with a pcTG90/DOPE 1:2 mixture in 250 μl 5% glucose. After 20 min incubation at room temperature, the complexes were intravenously injected into B6SJL mice. Mice were sacrificed at day 1. The lungs were recovered, total protein was extracted and luciferase activity was analysed.\nThe potential of gene transfer with mono-component peptide vectors was investigated in vivo. Fifty or sixty μg of the luciferase expression plasmid pTG11236 were complexed with pcTG90/DOPE (1:2) [+/−] 10 in 250 μl 5% glucose (Meyer et al. 2000). The resulting lipoplex vector served as reference for gene transfer studies with pTG11236 complexed with ppTG1, ppTG20 and ppTG32 in 250 μl 5% glucose. Five mice per group were intravenously injected, the animals were sacrificed at day 1 after injection. Lungs were tested for luciferase activity."}, "[3]": {"conditions": "60 μg pTG11236 with 150 μg ppTG1"}},
  "note": "Entries after “also recorded” stand apart in the source; their conditions may differ. Ends that are not written are not given here.",
  "data": [
    {"sequence": "GLFKALLKLLKSLWKLLLKA", "values": [
      {"measurement": "transfection of human tumor cell lines", "setting": "[1]", "result": "successfully transfected; also recorded: can efficiently transfect human tumor cell lines, especially SW480 cells"},
      {"measurement": "amount of peptide at which 50% of the DNA is complexed", "setting": "plasmid pTG11236; 3 μg pTG11236, 1 μg = 0.35 nmol", "result": 1, "unit": "µg"},
      {"measurement": "amount of peptide giving retardation of plasmid", "setting": "plasmid pTG11236; 3 μg plasmid DNA (0.8 pmol), 4 μg peptide = 1.4 nmol", "result": 4, "unit": "µg"},
      {"measurement": "liposome leakage activity, in words", "setting": "[2]; pH5", "result": "could efficiently liberate calcein"},
      {"measurement": "liposome leakage activity, in words", "setting": "[2]; pH7", "result": "could efficiently liberate calcein"},
      {"measurement": "liposome leakage of peptide/plasmid complexes", "setting": "[2]; complexed with pTG11236, P/N 5 or 10, pH7", "result": "comparable to free ppTG1"},
      {"measurement": "liposome leakage of peptide/plasmid complexes", "setting": "[2]; complexed with pTG11236, P/N of 1 or 0.8, pH7", "result": "slightly reduced"},
      {"measurement": "destabilization of POPC/Chol liposomes", "setting": "[2]; peptide alone or complexed with plasmid DNA, summary", "result": "destabilizes efficiently"},
      {"measurement": "reporter gene expression after re-administration at day 3", "setting": "B6SJL mice; [3]", "result": "still refractory"},
      {"measurement": "reporter gene expression after re-administration at day 14", "setting": "B6SJL mice; [3]", "result": "re-appearance of reporter gene expression"},
      {"measurement": "mice with gene expression in the lung", "setting": "B6SJL mice; complexes of pTG11236 and ppTG1, i.v., day 1", "result": "5 out of 5"},
      {"measurement": "gene expression 3 days after injection", "setting": "B6SJL mice; ppTG1/plasmid complexes, data not shown", "result": "dropped 3 days after injection to background levels"}
    ]}
  ]
}
